Measurements as given in patent publication US20030004157A1, “Use of NK-1 receptor antagonists against benign prostatic hyperplasia” (priority 2001, published 2003).

System: Beagle dogs
Assay: 39-week toxicity study in the dog
Assay type: in vivo
Details: 39 weeks; for PROSTATE diff. % vs. control (relative organ weight) / PROSTATE per 100 g BW relative (mean relative organ weight) / TESTES diff. % vs. control (relative organ weight) / TESTES per 100 g BW relative (mean relative organ weight) / PROSTATE absolute (mean absolute organ weight) / TESTES absolute (mean absolute organ weight): male Beagle dogs, oral gavage, SEDDS formulation; for PROSTATE absolute (mean absolute organ weight) / TESTES absolute (mean absolute organ weight): in g (unit assumed); for reduced weights of the prostate gland compared to the control / microscopic changes of the prostate (animals affected): males
Method: In a nine-month study four groups of Beagle dogs (4 animals/gender/group; 5-6 months of age at study start) received oral doses (gavage) of 0 (placebo), 6, 20 and 60 mg/kg/d of 2-(3,5-bis-trifluoromethyl-phenyl)-N-methyl-N-(6-morpholin-4-yl-4-o-tolyl-pyridin-3-yl)-isobutyramide as a SEDDS formulation for 39 weeks. The following variables were investigated: clinical signs, body weights, food consumption, ophthalmoscopy before and at the end of the study, electrocardiography, heart rate, toxicokinetics at different time-points, clinical pathology (hematology, biochemistry, urinalysis) in 3-months intervals, necropsy and tissue preservation, organ weights and histopathology.
Mean absolute organ weights were adjusted to 100 g of the mean terminal body weights=>mean relative organ weights.
Mean relative organ weights were compared to the corresponding control=>% deviation.

SMILES: Cc1ccccc1-c1cc(N2CCOCC2)ncc1N(C)C(=O)C(C)(C)c1cc(C(F)(F)F)cc(C(F)(F)F)c1 [2-(3,5-bis-trifluoromethyl-phenyl)-N-methyl-N-(6-morpholin-4-yl-4-o-tolyl-pyridin-3-yl)-isobutyramide]
- abnormalities in organ systems other than prostate (6, 20 and 60 mg/kg/d oral): no overt abnormalities in any other organ system
- liver changes (6, 20 and 60 mg/kg/d oral): Mild changes in the liver (hepatocyte hypertrophy with slightly increased organ weights)
- PROSTATE diff. % vs. control (relative organ weight) (6 mg/kg/d): −24%
- PROSTATE per 100 g BW relative (mean relative organ weight) (6 mg/kg/d): 0.059
- TESTES diff. % vs. control (relative organ weight) (6 mg/kg/d): +1%
- TESTES per 100 g BW relative (mean relative organ weight) (6 mg/kg/d): 0.1803
- PROSTATE absolute (mean absolute organ weight) (6 mg/kg/d): 8.066
- TESTES absolute (mean absolute organ weight) (6 mg/kg/d): 24.577
- PROSTATE diff. % vs. control (relative organ weight) (20 mg/kg/d): −37%
- PROSTATE per 100 g BW relative (mean relative organ weight) (20 mg/kg/d): 0.049
- TESTES diff. % vs. control (relative organ weight) (20 mg/kg/d): +6%
- TESTES per 100 g BW relative (mean relative organ weight) (20 mg/kg/d): 0.1804
- PROSTATE absolute (mean absolute organ weight) (20 mg/kg/d): 6.413
- TESTES absolute (mean absolute organ weight) (20 mg/kg/d): 23.432
- PROSTATE diff. % vs. control (relative organ weight) (60 mg/kg/d): −58%
- PROSTATE per 100 g BW relative (mean relative organ weight) (60 mg/kg/d): 0.033
- TESTES diff. % vs. control (relative organ weight) (60 mg/kg/d): +9%
- TESTES per 100 g BW relative (mean relative organ weight) (60 mg/kg/d): 0.1853
- PROSTATE absolute (mean absolute organ weight) (60 mg/kg/d): 4.429
- TESTES absolute (mean absolute organ weight) (60 mg/kg/d): 24.753
- reduced weights of the prostate gland compared to the control (6 mg/kg/d oral): insignificant trend
- microscopic changes of the prostate (animals affected) (20 mg/kg/d oral): most
- reduced weights of the prostate gland compared to the control (20 mg/kg/d oral): 37%
- microscopic changes of the prostate (animals affected) (60 mg/kg/d oral): all males
- reduced weights of the prostate gland compared to the control (60 mg/kg/d oral): 58%
